Each structure is given as a SMILES string.

Series [1] deals with herpes simplex virus type 1 (HSV-1). On the set-up: method as in PMID 19892441. The note with it: endpoint titration (EPTT); cited from earlier work.
For another series, the system named is A549 cell culture. The experiment in a line: Cytotoxicity, colorimetric MTT assay. It is filed as cell-based, human. The method, then:
The cytotoxicity of compounds (I–V) was assessed on A549 cell culture using a colorimetric MTT assay. A549 cells were incubated for 24 h at 37 °C, 5% CO2 with solutions of the studied compounds at various concentrations. Next, the cell monolayer was washed, and MTT solution was added in a volume of 0.1 mL at a concentration of […]. After 1 h of MTT contact with the cells, the wells were washed, and the formed formazan crystals were dissolved in 0.1 mL of DMSO. The results were recorded at 560 nm on a CLARIOstar Plus plate photometer (BMG LABTECH, Ortenberg, Germany). The IC50 was calculated using GraphPad Prism 6.0.
Background: Tetrazolium assays rely on reduction of a dye to a coloured formazan, in cell work by metabolically active cells.

The next series has as its system Bacillus subtilis. As to the kind of experiment: Disco-diffuse method, antibacterial activity. The note with it: for The Zone of Growth Inhibition: 24 h at 37 °C. It is filed as cell-based. The method, then:
(§1) The determination of compounds (I, IV, VI–XI) effect concerning microorganisms was carried out using test strains of Escherichia coli, Bacillus subtilis, and Candida tropicalis. They are not only natural inhabitants of natural biocenoses but also a part of human microbiocenosis. Used microorganisms of bacteria were selected as representatives of the Gram-positive and Gram-negative human microbiota. The antibacterial activity of compounds (I, IV, VI–XI) was studied by the disco-diffuse method. The strain culture was transferred sterile from the mown agar into test tubes with 5 mL of nutrient medium to obtain a “night culture” 12–15 h before the experiment. Beef-extract agar (BEA) was used as a nutrient medium for the development of bacterial cells, and Sabouraud’s medium was used for yeast. Bacterial cultures were incubated in a thermostat at 37 °C, and yeast cultures at 32 °C. The melted BEA was poured sterile into Petri dishes (diameter 90 mm) and evenly distributed over the bottom of the dish, covered with a lid, and left on the table until it solidified completely. Next, the dishes with BEA were inoculated with a “lawn” by introducing a strain culture (suspension titer −1–2 × 10^8 CFU/mL) in an amount of 500 µL and evenly distributing it with a sterile spatula. The dishes were left for 60–90 min to dry the culture. Compounds (I, IV, VI–XI) were previously dissolved, and the sequential dilutions were applied to disks. Dimethyl sulfoxide (DMSO) was used as a solvent for the DAA. Water was used as a solvent for their potassium salts. […] This disk was impregnated with a solution of the test compound amounting to 100 μL and incubated in the dark for 24 h at 37 °C (Escherichia coli and Bacillus subtilis) and 48 h at 32 °C (Candida tropicalis). The solution diffuses, forming a concentration gradient of the test compound around the disc. After the incubation period, the inhibition zone or stimulation of microbial growth around the disk was measured in the experimental and control samples. A conclusion was made about the degree (bactericidal) toxicity of compounds. Solvent-treated disks (DMSO) were used as controls. The experiments were performed three times.

Another series concerns Escherichia coli. The experiment in a line: Disco-diffuse method, antibacterial activity. Type of series: cell-based. As to conditions: for The Zone of Growth Inhibition: 24 h at 37 °C. The method, then:
as §1

The next series concerns Candida tropicalis. The experiment in a line: Disco-diffuse method, fungicidal activity. The note with it: for The Zone of Growth Inhibition: 48 h at 32 °C. It is filed as cell-based. The method, then:
as §1

Series [2] relates to A/California/07/09 ((A)H1N1pdm09) viral strain. Type of series: cell-based, influenza virus.
The mark [3] stands for this setting: compound concentration 10 mg/mL.
Setting [4] is: compound concentration 25 mg/mL.
Setting [5] is: compound concentration 50 mg/mL.

`CC(C)c1ccc2c(c1)CC[C@H]1[C@](C)(COC(=O)c3ccccc3)CCC[C@]21C` [dehydroabietinol benzoate]: the “Concentration at which HSV-1 replication was reduced” value in series [1] is “below 100 mg/mL”.
As to `CC(C)c1cc2c(cc1S(=O)(=O)[O-])C1(C)CCCC(C)(C(=O)[O-])C1CC2.[K+].[K+]` (stereo not shown) [IV, Potassium 12-sulfodehydroabietate], the “Cytotoxicity (in words)” value with A549 cell culture (A549, MTT assay) is recorded as “weak toxicity”. The IC50 (in general, the concentration that gives 50% inhibition) with A549 cell culture (Homo sapiens, A549, 24 h, read-out: Determined IC50) is greater than 431 µg/mL. Also, the “Cell viability (in words)” value in the series on A549 cell culture (at the working concentrations used to assess antiviral activity) is listed as “did not cause a significant decrease in cell viability”. Besides, the “Antibacterial activity (in words)” value in the series with Bacillus subtilis (1-50 mg/mL) and in the series on Escherichia coli (1-50 mg/mL) was “did not show either antibacterial activity or fungicidal activity” throughout. Moreover, the “The Zone of Growth Inhibition” value with Bacillus subtilis (compound concentration 1 mg/mL), in the series on Bacillus subtilis (compound concentration 5 mg/mL), in the series with Bacillus subtilis (setting [3]), with Bacillus subtilis (setting [4]), in the series on Bacillus subtilis (setting [5]) and with Escherichia coli (compound concentration 1 mg/mL) was 0 mm in each case. In addition, the “The Zone of Growth Inhibition” value with Escherichia coli (compound concentration 5 mg/mL), in the series on Escherichia coli (setting [3]), in the series with Escherichia coli (setting [4]), in the series with Escherichia coli (setting [5]), with Candida tropicalis (compound concentration 1 mg/mL) and in the series with Candida tropicalis (compound concentration 5 mg/mL) was 0 mm each time. Also, the “The Zone of Growth Inhibition” value in the series on Candida tropicalis (setting [3]), with Candida tropicalis (setting [4]) and with Candida tropicalis (setting [5]) was 0 mm each time. The “Fungicidal activity (in words)” value in the series on Candida tropicalis (1-50 mg/mL) is listed as “did not show either antibacterial activity or fungicidal activity”. In addition, the Dose-dependent antiviral effect entry in series [2] was “did not significantly reduce the viral load”. The “Antiviral activity (in words)” value in series [2] (A549, in vitro, working concentration) is listed as “did not show antiviral activity”.
In the case of `CC(=O)OC[C@]1(C)CCC[C@]2(C)c3ccc(C(C)C)cc3CC[C@@H]12` [dehydroabietinol acetate], in series [1], the “Concentration at which HSV-1 replication was reduced” value was “below 100 mg/mL”.
